# According to patent publication EP4732840A1, “AGENT FOR SUPPRESSING PROLIFERATION OF BACTERIA, AND COSMETIC, QUASI-DRUG, AND PHARMACEUTICAL COMPOSITION CONTAINING SAID AGENT, AND METHOD FOR SUPPRESSING PROLIFERATION OF BACTERIA” (Toyo Sugar Refining Co., Ltd., priority 2023, dated 2024):
# Columns and labels:
# [1] = system: Staphylococcus aureus; test: Proliferation test with paper disc on agar plate (growth inhibition zone); assay type: cell-based, Staphylococcus aureus (NBRC 13276); details: test substance (COSARTE-2G or glycerin) diluted to 40% by mass, 50 µL on paper disc; BHI agar, 48 hours
# Method: (§1) As glyceryl glucoside, COSARTE-2G (manufactured by Toyo Sugar Refining Co., Ltd.) was diluted with ion-exchanged water such that COSARTE-2G was 40% by mass. Further, as a positive control, BD (Sensi-Disc Tetracycline 30, Antimicrobial Susceptibility Test Kit, manufactured by Nippon Becton Dickinson Company, Ltd.) was used. As a control, glycerin (manufactured by Nacalai Tesque Inc.) was diluted with ion-exchanged water to be 40% by mass.
# Staphylococcus aureus (NBRC 13276) was used as a representative strain of Staphylococcus aureus. A Staphylococcus aureus strain was added to BHI liquid medium and pre-cultured at 37°C.
# (§2) GAM agar plates and BHI agar plates were prepared. Pre-cultured Propionibacterium acnes, Streptococcus mutans, and Staphylococcus aureus strains in the logarithmic growth phase were suspended in liquid medium to a concentration of 1 × 10^7 cells/mL, and 50 µL of this suspension was taken and spread onto each agar plate medium using a glass spreader.
# (§3) Each test substance was sterilized by filtration using a membrane filter, and then 50 µL was impregnated into a sterilized paper disc. […]
# (§4) The effect of inhibiting the proliferation of bacteria was determined by the presence or absence and size of the growth inhibition zone around the paper disc.
# [2] = system: Streptococcus mutans; test: as above; assay type: cell-based, Streptococcus mutans (JCM 5705); details: test substance (COSARTE-2G or glycerin) diluted to 40% by mass, 50 µL on paper disc; BHI agar, 48 hours
# Method: as §1
# Streptococcus mutans (JCM 5705) was used as a representative strain of Streptococcus mutans. A Streptococcus mutans strain was added to BHI liquid medium and pre-cultured at 35°C.
# as §2
# Each test substance was sterilized by filtration using a membrane filter, and then 50 µL was impregnated into a sterilized paper disc. A paper disk was aseptically placed on an agar plate medium, and cultured for 48 hours under conditions suitable for each bacterial strain.
# as §4
# [3] = system: Propionibacterium acnes; test: as above; assay type: cell-based, Propionibacterium acnes (JCM 6425); details: test substance (COSARTE-2G or glycerin) diluted to 40% by mass, 50 µL on paper disc; GAM agar, anaerobic, 48 hours
# Method: as §1
# Propionibacterium acnes (JCM 6425) was used as a representative strain of Propionibacterium acnes. A Propionibacterium acnes strain was added to GAM liquid medium and pre-cultured at 35°C under anaerobic conditions using an AnaeroPack.
# as §2, §3, §4
# [4] = Water solubility; assay type: physicochemical
# [5] = system: Atopobium vaginae; test: Bacterial proliferation test (turbidity, absorbance at 600 nm); assay type: cell-based, Atopobium vaginae (ATCC BAA-55); details: C-mo 2G at final concentrations of 0.5%, 1.0%, 2.0% in medium; 2 culture days, 37°C, anaerobic; n = 3; effect concentration dependent
# Text: (§5) C-mo2G (manufactured by Toyo Sugar Refining Co., Ltd.) was used as glyceryl glucoside. Furthermore, as a positive control, penicillin-streptomycin (manufactured by FUJIFILM Wako Pure Chemical Corporation, No. 168-23191) was used. Sterile water was used as a control.
# (§6) Bacteria and media shown in Table 1 were used, and cultured under the conditions in Table 1.
# (§7) As a GAM semi-fluid high layer medium, NO.05424 manufactured by NISSUI PHARMACEUTICAL CO., LTD. was used.
# (§8) The number of culture days was set to such a number of days that bacterial proliferation could be visually confirmed in the control.
# An experiment was performed using Atopobium vaginae as a representative bacterium of the genus Atopobium.
# Each bacterium in which a frozen stock (15% (vol/vol) glycerin was added to the medium) was inoculated into 9 mL of the medium, and culture was started. After culturing until reaching the logarithmic growth phase, the medium was well stirred to make the turbidity uniform, and then the absorbance at 600 nm was measured. The medium was diluted with a medium such that the absorbance (600 nm) was 0.1, and this was used as a bacterial diluent. […]
# (§9) 200 µL of the bacterial diluent was added to 9 mL of the medium containing the test substance, and culture was started. After culturing, the medium was well stirred to make the turbidity uniform, and then the absorbance (turbidity) at 600 nm was measured. […]
# [6] = Mutagenicity test (in vitro)
# [7] = Eye irritation test; assay type: in vivo; details: rabbit
# [8] = Phototoxicity test; assay type: in vivo; details: guinea pig
# [9] = system: Lactobacillus crispatus; test: Bacterial proliferation test (turbidity, absorbance at 600 nm); assay type: cell-based, Lactobacillus crispatus (ATCC 33820); details: C-mo 2G at final concentrations of 0.5%, 1.0%, 2.0% in medium; 1 culture day, 37°C, 5%CO2; n = 3
# Text: as §5, §6, §7, §8
# (§10) Each bacterium in which a frozen stock (15% (vol/vol) glycerin was added to the medium) was inoculated into 9 mL of the medium, and culture was started. After culturing until reaching the logarithmic growth phase, the medium was well stirred to make the turbidity uniform, and then the absorbance at 600 nm was measured. The medium was diluted with a medium such that the absorbance (600 nm) was 0.1, and this was used as a bacterial diluent.
# (§11) C-mo 2G was added to the medium at final concentrations of 0.5%, 1.0%, and 2.0%. […]
# as §9
# [10] = Repeated skin irritation test; details: in vivo
# [11] = Photosensitization test; details: in vivo
# [12] = Skin sensitization test (intracutaneous Maximization method); assay type: in vivo; details: guinea pig intracutaneous Maximization method
# [13] = system: Gardnerella vaginalis; test: Bacterial proliferation test (turbidity, absorbance at 600 nm); assay type: cell-based, Gardnerella vaginalis (ATCC 14018); details: C-mo 2G at final concentrations of 0.5%, 1.0%, 2.0% in medium; 3 culture days, 37°C, 5%CO2; n = 3; effect concentration dependent
# Text: as §5, §6, §7, §8, §10, §11, §9
# [14] = Human patch test; assay type: in vivo
# [15] = Primary skin irritation test; assay type: in vivo; details: rabbit
# [16] = system: Lactobacillus iners; test: Bacterial proliferation test (turbidity, absorbance at 600 nm); assay type: cell-based, Lactobacillus iners (ATCC 55195); details: C-mo 2G at final concentrations of 0.5%, 1.0%, 2.0% in medium; 3 culture days, 37°C, 5%CO2; n = 3
# Text: as §5, §6, §7, §8, §10, §11, §9
# [17] = system: Staphylococcus epidermidis; details: viable count after 24 hours or 48 hours exposure; Patent Literature 2; cited from earlier work
# [18] = system: Pseudomonas cepacia; details: viable count after 24 hours or 48 hours exposure; Patent Literature 2; cited from earlier work
# [19] = reported in Patent Literature 2; cited from earlier work
# [20] = system: Pseudomonas aeruginosa; details: viable count after 24 hours or 48 hours exposure; Patent Literature 2; cited from earlier work
# [21] = system: Corynebacterium minutissimum; details: viable count after 24 hours or 48 hours exposure; Patent Literature 2; cited from earlier work
# [22] = system: Staphylococcus aureus; details: viable count after 24 hours or 48 hours exposure; Patent Literature 2; cited from earlier work
# [23] = system: Escherichia coli; details: viable count after 24 hours or 48 hours exposure; Patent Literature 2; cited from earlier work
molecule,measurement,setting,value
"OCC(O)CO [Glycerin, glycerin, reference compound]","growth inhibition zone around the paper disc, Staphylococcus aureus",[1],same result as glyceryl glucoside
same,"growth inhibition zone around the paper disc, Streptococcus mutans",[2],same result as glyceryl glucoside
same,"growth inhibition zone around the paper disc, Propionibacterium acnes",[3],same result as glyceryl glucoside
glyceryl glucoside,water solubility,[4],good
same,proliferation of Atopobium vaginae (absorbance 600 nm) relative to control,[5],significantly inhibited
same,toxicity in mutagenicity test,[6],no toxicity
same,toxicity in eye irritation test,[7],no toxicity
same,toxicity in phototoxicity test,[8],no toxicity
same,"proliferation of Lactobacillus crispatus (number of bacteria, absorbance 600 nm) relative to control",[9],little change in the number
same,"growth inhibition zone around the paper disc, Staphylococcus aureus",[1],no growth inhibition zone
same,toxicity in repeated skin irritation test,[10],no toxicity
same,toxicity in photosensitization test,[11],no toxicity
same,toxicity in skin sensitization test,[12],no toxicity
same,"growth inhibition zone around the paper disc, Streptococcus mutans",[2],no growth inhibition zone
same,proliferation of Gardnerella vaginalis (absorbance 600 nm) relative to control,[13],significantly inhibited
same,toxicity in human patch test,[14],no toxicity
same,toxicity in primary skin irritation test,[15],no toxicity
same,"proliferation of Lactobacillus iners (number of bacteria, absorbance 600 nm) relative to control",[16],increased
same,"growth inhibition zone around the paper disc, Propionibacterium acnes",[3],no growth inhibition zone
α-D-glucopyranosylglycerol,antimicrobial activity against Staphylococcus epidermidis,[17],antimicrobial activity
same,antimicrobial activity against Pseudomonas cepacia,[18],antimicrobial activity
same,skin irritation,[19],no skin irritation
same,antimicrobial activity against Pseudomonas aeruginosa,[20],antimicrobial activity
same,antimicrobial activity against Corynebacterium minutissimum,[21],antimicrobial activity
same,antimicrobial activity against Staphylococcus aureus,[22],antimicrobial activity
same,antimicrobial activity against Escherichia coli,[23],antimicrobial activity
